Laboratory results published in ChEMBL document CHEMBL1201862, “PubChem BioAssay data set” (2004).
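Interpolation was linear, between the two tested concentrations surrounding the appropriate level; five concentrations were tested over 48 hours in 96-well plates. Abbreviation: GI50, concentration required for 50% inhibition of growth.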 The source made the active and inactive calls. Cut-off read from the data, not from the text of the source: active = GI50 up to about 1.1 µM and inactive = higher.

Key:
Assay in all cases: growth of human tumour cells (NCI), 48 h
A549 = system: A549
UACC-62 = system: UACC-62
RXF 393 = system: RXF 393
NCI/ADR-RES = system: NCI/ADR-RES
SR = system: SR
MCF7 = system: MCF7
Hs-578T = system: Hs-578T
Malme-3M = system: Malme-3M
DU-145 = system: DU-145
SNB-19 = system: SNB-19
RPMI-8226 = system: RPMI-8226
BT-549 = system: BT-549
K562 = system: K562
786-0 = system: 786-0
MDA-MB-231 = system: MDA-MB-231
UO-31 = system: UO-31
NCI-H226 = system: NCI-H226
PC-3 = system: PC-3
SF-295 = system: SF-295
HL-60 = system: HL-60

Measured: GI50

O=C(/C=C/c1ccc(-c2ccccc2[N+](=O)[O-])o1)NCc1ccc(C(=O)NCCc2ccccc2)cc1
inactive: A549 > 100 µM | UACC-62 6.4 µM | RXF 393 > 100 µM | NCI/ADR-RES > 100 µM | SR 5.62 µM | MCF7 > 100 µM | Hs-578T > 100 µM | Malme-3M > 100 µM | DU-145 > 100 µM | SNB-19 > 100 µM | RPMI-8226 > 100 µM | BT-549 > 100 µM | K562 > 100 µM | 786-0 > 100 µM | MDA-MB-231 > 100 µM | UO-31 > 100 µM | NCI-H226 > 100 µM | PC-3 > 100 µM | SF-295 > 100 µM

O=C(CC(=O)N1N=C(N(c2ccccc2)c2ccccc2)CC1c1ccccc1)Nc1ccc(Cl)cc1 (stereo not drawn)
inactive: A549 > 100 µM | UACC-62 > 100 µM | RXF 393 > 100 µM | NCI/ADR-RES > 100 µM | SR > 100 µM | MCF7 > 100 µM | HL-60 > 100 µM | Hs-578T > 100 µM | DU-145 > 100 µM | SNB-19 > 100 µM | RPMI-8226 > 100 µM | BT-549 > 100 µM | K562 > 100 µM | 786-0 > 100 µM | MDA-MB-231 > 100 µM | UO-31 > 100 µM | NCI-H226 > 100 µM | PC-3 > 100 µM | SF-295 > 100 µM

Cc1cccc(NC(=S)Nc2ccc([N+](=O)[O-])cc2)n1
inactive: UACC-62 > 100 µM | RXF 393 > 100 µM | NCI/ADR-RES > 100 µM | SR > 100 µM | MCF7 > 100 µM | HL-60 > 100 µM | Hs-578T > 100 µM | DU-145 > 100 µM | SNB-19 > 100 µM | RPMI-8226 > 100 µM | BT-549 > 100 µM | K562 > 100 µM | 786-0 > 100 µM | MDA-MB-231 > 100 µM | UO-31 > 100 µM | NCI-H226 > 100 µM | PC-3 > 100 µM | SF-295 > 100 µM

CCN(CC)CCNC(=O)c1ccc(I)cc1
inactive: A549 > 100 µM | RXF 393 > 100 µM | NCI/ADR-RES > 100 µM | SR > 100 µM | MCF7 > 100 µM | Hs-578T > 100 µM | Malme-3M > 100 µM | DU-145 > 100 µM | SNB-19 > 100 µM | RPMI-8226 > 100 µM | BT-549 > 100 µM | K562 > 100 µM | 786-0 > 100 µM | MDA-MB-231 > 100 µM | UO-31 > 100 µM | NCI-H226 > 100 µM | PC-3 > 100 µM | SF-295 > 100 µM

CN1CCc2[nH]nc(-c3n[nH]c4c3CN(C)CC4)c2C1
inactive: A549 > 100 µM | UACC-62 > 100 µM | RXF 393 > 100 µM | NCI/ADR-RES > 100 µM | SR > 100 µM | MCF7 > 100 µM | Hs-578T > 100 µM | Malme-3M > 100 µM | DU-145 > 100 µM | SNB-19 > 100 µM | RPMI-8226 > 100 µM | BT-549 > 100 µM | K562 > 100 µM | 786-0 > 100 µM | MDA-MB-231 > 100 µM | UO-31 > 100 µM | NCI-H226 > 100 µM | PC-3 > 100 µM | SF-295 > 100 µM

O=C1c2cc3c(cc2NC(c2ccccc2F)C1O)OCO3 (stereo not drawn)
inactive: A549 11.7 µM | UACC-62 10.9 µM | RXF 393 22.4 µM | NCI/ADR-RES 10.5 µM | SR 3.74 µM | MCF7 5.27 µM | Hs-578T 18.1 µM | Malme-3M 9.86 µM | DU-145 35 µM | SNB-19 21.3 µM | RPMI-8226 30.5 µM | BT-549 57.1 µM | K562 6.85 µM | 786-0 15.5 µM | MDA-MB-231 20.2 µM | UO-31 27.7 µM | NCI-H226 20.9 µM | PC-3 10.6 µM | SF-295 12.1 µM

O=C(NC(=S)Nc1ccc(Br)cc1)c1ccc2c(c1)Sc1ccccc1S2
inactive: A549 21 µM | UACC-62 27.5 µM | NCI/ADR-RES 24.2 µM | SR 17.3 µM | MCF7 32.7 µM | HL-60 17.5 µM | Hs-578T 26.5 µM | Malme-3M 24.4 µM | DU-145 17.3 µM | SNB-19 25.2 µM | BT-549 39.1 µM | K562 9.04 µM | 786-0 16.2 µM | MDA-MB-231 17.6 µM | UO-31 12.9 µM | NCI-H226 23.4 µM | PC-3 47.8 µM | SF-295 20.4 µM

C=CC1(C)CCC2C(=CCC3C2(C)CC(O)C(O)C3(C)COC2OC(CO)C(O)C(O)C2O)C1 (stereo not drawn)
inactive: A549 > 100 µM | UACC-62 > 100 µM | NCI/ADR-RES > 100 µM | SR 41.4 µM | MCF7 > 100 µM | HL-60 57.9 µM | Hs-578T > 100 µM | Malme-3M > 100 µM | DU-145 > 100 µM | SNB-19 44.8 µM | BT-549 > 100 µM | K562 > 100 µM | 786-0 > 100 µM | MDA-MB-231 > 100 µM | UO-31 > 100 µM | NCI-H226 > 100 µM | PC-3 > 100 µM | SF-295 > 100 µM

CC(=O)OC1CCC2(C)C(=CCC3C2CCC2(C)C(C(C)C(=O)O)CCC32)C1 (stereo not drawn)
inactive: A549 54.8 µM | UACC-62 > 100 µM | RXF 393 69.5 µM | NCI/ADR-RES > 100 µM | SR > 100 µM | MCF7 51.1 µM | Hs-578T > 100 µM | Malme-3M > 100 µM | DU-145 > 100 µM | SNB-19 > 100 µM | RPMI-8226 > 100 µM | BT-549 > 100 µM | K562 > 100 µM | 786-0 > 100 µM | MDA-MB-231 > 100 µM | UO-31 92 µM | NCI-H226 > 100 µM | PC-3 > 100 µM | SF-295 > 100 µM

CC(SC(=S)N(C)C)C(=O)Nc1nnc(-c2ccc(Cl)cc2)o1 (stereo not drawn)
inactive: A549 33.3 µM | UACC-62 45.8 µM | RXF 393 80.7 µM | NCI/ADR-RES 14.6 µM | SR 4.33 µM | MCF7 26.7 µM | Hs-578T > 100 µM | Malme-3M 90.2 µM | DU-145 59.8 µM | SNB-19 35.3 µM | RPMI-8226 22.6 µM | BT-549 89.1 µM | K562 14.3 µM | 786-0 20.8 µM | MDA-MB-231 44.6 µM | UO-31 20 µM | NCI-H226 40.6 µM | PC-3 35.9 µM

O=C1Nc2ccccc2/C1=N/N=C1NCCCCN1
inactive: A549 > 100 µM | UACC-62 > 100 µM | NCI/ADR-RES > 100 µM | SR > 100 µM | MCF7 > 100 µM | Hs-578T > 100 µM | Malme-3M > 100 µM | DU-145 > 100 µM | SNB-19 > 100 µM | RPMI-8226 > 100 µM | BT-549 > 100 µM | K562 > 100 µM | 786-0 > 100 µM | MDA-MB-231 > 100 µM | UO-31 > 100 µM | NCI-H226 > 100 µM | PC-3 > 100 µM | SF-295 > 100 µM
